In patent US20140155384A1, “COMPOUNDS AND METHODS OF TREATING DIABETES” (Medivation Technologies, Inc., priority 2011, published 2014):

Columns and labels:
[1] = target: T1, human recombinant adrenergic α2A receptor (Homo sapiens, UniProt P08913); test: Radioligand binding, adrenergic α2A receptor ([3H]MK-912); conditions: 0.1 μM compound; Sf9 cells; 1 nM [3H]MK-912; read-out: Percentage inhibition of ligand binding, Adrenergic α2A
T1 construct: expressed in transfected cells; host or cells: insect Sf9 cells
T1 sequence (P08913 1-465): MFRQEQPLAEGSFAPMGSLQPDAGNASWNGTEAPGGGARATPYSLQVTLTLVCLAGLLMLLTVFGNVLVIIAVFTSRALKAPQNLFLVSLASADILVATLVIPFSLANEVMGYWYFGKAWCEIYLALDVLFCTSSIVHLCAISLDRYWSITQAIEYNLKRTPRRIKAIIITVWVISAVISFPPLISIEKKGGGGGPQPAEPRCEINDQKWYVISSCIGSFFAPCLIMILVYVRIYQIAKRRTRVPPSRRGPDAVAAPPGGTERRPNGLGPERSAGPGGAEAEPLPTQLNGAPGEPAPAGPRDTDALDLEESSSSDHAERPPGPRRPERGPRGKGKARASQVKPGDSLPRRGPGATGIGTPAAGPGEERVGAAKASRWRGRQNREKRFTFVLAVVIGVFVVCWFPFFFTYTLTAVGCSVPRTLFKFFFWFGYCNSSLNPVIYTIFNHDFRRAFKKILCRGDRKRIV
Procedure: To evaluate in radioligand binding assays the activity of compounds, human recombinant adrenergic α2A receptor expressed in insect Sf9 cells (Uhlen, S. et al, J. Pharmacol. Exp. Ther. 271:1558, 1994) in a modified Tris-HCl buffer (50 mM Tris-HCl, pH 7.4, 12.5 mM MgCl2, 2 mM EDTA) was used. Compounds were incubated with 1 nM [^3H]MK-912 for 60 min at 25° C. MK912 is (2S-trans)-1,3,4,5′,6,6′,7,12b-octahydro-1′,3′-dimethyl-spiro[2H-benzofuro[2,3-a]quinolizine-2,4′(1′H)-pyrimidin]-2′(3′H)-one hydrochloride Non-specific binding was estimated in the presence of 10 μM WB-4101 (2-(2,6-Dimethoxyphenoxyethyl)aminoethyl-1,4-benzodioxane hydrochloride). Receptor proteins were filtered and washed, the filters were then counted to determine [^3H]MK-912 specifically bound. Compounds were screened at 1 μM or lower, using 1% DMSO as vehicle. Compounds were tested in this biochemical assay and percent inhibition of specific binding was determined. Biochemical assay results are presented as the percent inhibition of specific binding in Table 2.

[2] = target: T2, human recombinant adrenergic α1D receptor (Homo sapiens, UniProt P25100); test: Radioligand binding, adrenergic α1D receptor ([3H]Prazosin); conditions: 0.1 μM compound; HEK-293 cells; 0.6 nM [3H]Prazosin; read-out: Percentage inhibition of ligand binding, Adrenergic α1D
T2 construct: expressed in transfected cells; host or cells: HEK-293
T2 sequence (P25100 1-572): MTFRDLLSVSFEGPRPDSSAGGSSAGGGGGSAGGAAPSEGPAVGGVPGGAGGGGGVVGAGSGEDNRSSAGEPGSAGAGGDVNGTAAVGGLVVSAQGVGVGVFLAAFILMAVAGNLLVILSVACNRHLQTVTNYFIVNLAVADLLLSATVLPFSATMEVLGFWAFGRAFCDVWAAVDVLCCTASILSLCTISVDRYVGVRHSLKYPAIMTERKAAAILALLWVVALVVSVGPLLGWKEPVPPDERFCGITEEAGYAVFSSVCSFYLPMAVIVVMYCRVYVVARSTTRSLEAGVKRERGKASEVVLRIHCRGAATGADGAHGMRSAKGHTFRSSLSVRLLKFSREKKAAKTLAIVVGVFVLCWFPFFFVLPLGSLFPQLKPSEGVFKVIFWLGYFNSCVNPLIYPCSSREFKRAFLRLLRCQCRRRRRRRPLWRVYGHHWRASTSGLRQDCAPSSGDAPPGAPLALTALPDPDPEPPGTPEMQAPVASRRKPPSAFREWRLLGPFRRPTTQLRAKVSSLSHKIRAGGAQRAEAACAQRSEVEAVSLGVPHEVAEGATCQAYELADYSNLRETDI
Procedure: Compounds were incubated with 0.6 nM [3H]Prazosin for 60 min at 25° C. Non-specific binding was estimated in the presence of 10 μM phentolamine. Receptor proteins were filtered and washed, the filters were then counted to determine [3H]Prazosin specifically bound. Compounds were screened at 1 μM or lower, using 1% DMSO as vehicle. Biochemical assay results are presented as the percent inhibition of specific binding in Table 2.

[3] = target: T3, rat adrenergic α1B receptor (Rattus norvegicus, UniProt P15823); test: Radioligand binding, adrenergic α1B receptor ([3H]Prazosin); conditions: 0.1 μM compound, Wistar rat liver, read-out: Percentage inhibition of ligand binding, Adrenergic α1B
T3 construct: rat adrenergic α1B receptor obtained from Wistar Rat liver; from tissue; host or cells: Wistar rat liver
T3 sequence (P15823 1-515): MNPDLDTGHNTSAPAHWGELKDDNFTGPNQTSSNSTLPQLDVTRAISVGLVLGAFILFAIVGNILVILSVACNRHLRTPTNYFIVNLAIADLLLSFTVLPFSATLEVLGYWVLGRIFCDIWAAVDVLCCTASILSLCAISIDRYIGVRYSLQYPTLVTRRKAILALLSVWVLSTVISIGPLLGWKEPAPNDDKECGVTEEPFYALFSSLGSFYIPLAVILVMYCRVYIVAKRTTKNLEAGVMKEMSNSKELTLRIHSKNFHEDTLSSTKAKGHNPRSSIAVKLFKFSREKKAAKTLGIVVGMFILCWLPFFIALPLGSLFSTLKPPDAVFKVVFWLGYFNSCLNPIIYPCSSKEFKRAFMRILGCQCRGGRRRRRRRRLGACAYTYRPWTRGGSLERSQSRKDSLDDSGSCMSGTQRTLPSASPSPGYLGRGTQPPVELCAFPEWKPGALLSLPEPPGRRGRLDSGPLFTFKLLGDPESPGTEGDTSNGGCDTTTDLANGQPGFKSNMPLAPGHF
Procedure: To evaluate in radioligand binding assays the activity of compounds, rat adrenergic α1B receptor obtained from Wistar Rat liver (Garcia-S' ainz, J. et al, Biochem. Biophys. Res. Commun. 186:760, 1992; Michel, A. et al, Br. J. Pharmacol. 98:883, 1989) in a modified Tris-HCl buffer (50 mM Tris-HCl buffer, pH 7.4, 0.5 mM EDTA) was used. Compounds were incubated with 0.25 nM [^3H]Prazosin for 60 min at […]. Non-specific binding was estimated in the presence of 10 μM phentolamine. Receptor proteins were filtered and washed, the filters were then counted to determine [^3H]Prazosin specifically bound. Compounds were screened at 1 μM or lower, using 1% DMSO as vehicle. Compounds were tested in this biochemical assay and percent inhibition of specific binding was determined. Biochemical assay results are presented as the percent inhibition of specific binding in Table 2.

[4] = target: T4, human recombinant adrenergic α2B receptor (Homo sapiens, UniProt P18089); test: Radioligand binding, adrenergic α2B receptor ([3H]Rauwolscine); conditions: 0.1 μM compound, CHO-K1 cells, read-out: Percentage inhibition of ligand binding, Adrenergic α2B
T4 construct: expressed in transfected cells; host or cells: CHO-K1
T4 sequence (P18089 1-450): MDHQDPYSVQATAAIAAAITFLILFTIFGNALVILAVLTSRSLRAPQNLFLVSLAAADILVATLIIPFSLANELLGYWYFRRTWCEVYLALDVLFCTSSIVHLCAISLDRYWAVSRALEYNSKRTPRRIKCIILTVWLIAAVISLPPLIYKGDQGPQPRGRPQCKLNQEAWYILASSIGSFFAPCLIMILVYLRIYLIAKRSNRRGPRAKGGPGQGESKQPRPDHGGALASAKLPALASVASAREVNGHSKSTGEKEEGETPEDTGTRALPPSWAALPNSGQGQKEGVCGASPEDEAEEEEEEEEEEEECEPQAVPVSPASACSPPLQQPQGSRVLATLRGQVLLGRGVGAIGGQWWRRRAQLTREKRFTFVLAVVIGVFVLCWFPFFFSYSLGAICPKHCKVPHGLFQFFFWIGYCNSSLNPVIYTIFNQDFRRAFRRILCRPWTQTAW
Procedure: To evaluate in radioligand binding assays the activity of compounds, human recombinant adrenergic α2B receptor expressed in Chinese hamster ovary (CHO) K1 cells (Uhlen, S. et al, Eur. J. Pharmacol. 343(1):93, 1998) in a modified Tris-HCl buffer (50 mM Tris-HCl, pH 7.4, 12.5 mM MgCl2, 1 mM EDTA, 0.2% BSA) was used. Compounds were incubated with 2.5 nM [^3H]Rauwolscine for 60 min at 25° C. Non-specific binding was estimated in the presence of 10 μM Prazosin. Receptor proteins were filtered and washed, the filters were then counted to determine [^3H]Rauwolscine specifically bound. Compounds were screened at 1 μM or lower, using 1% DMSO as vehicle. Compounds were tested in this biochemical assay and percent inhibition of specific binding was determined. Biochemical assay results are presented as the percent inhibition of specific binding in Table 2.

Structure (SMILES)	inhibition at 0.1 µM [1]	inhibition at 0.1 µM [2]	inhibition at 0.1 µM [3]	inhibition at 0.1 µM [4]
Cc1ccc2c(c1)c1c(n2-c2cccc(-c3ccc(O)nc3)c2)CCN(C)C1 [Compound 52, 5-(3-(2,8-dimethyl-3,4-dihydro-1H-pyrido[4,3-b]indol-5(2H)-yl)phenyl)pyridin-2-ol]	43%	-3%	6%	36%
Cc1ccc2c(c1)c1c(n2-c2cccc(-c3ccc4c(ccn4C)c3)c2)CCN(C)C1 [Compound 53, 2,8-dimethyl-5-(3-(1-methyl-1H-indol-5-yl)phenyl)-2,3,4,5-tetrahydro-1H-pyrido[4,3-b]indole]	24%	0%	8%	15%
Cc1ccc2c(c1)c1c(n2-c2cccc(-c3ccc4[nH]cnc4c3)c2)CCN(C)C1 [Compound 54, 5-(3-(1H-benzo[d]imidazol-5-yl)phenyl)-2,8-dimethyl-2,3,4,5-tetrahydro-1H-pyrido[4,3-b]indole]	23%	-3%	8%	3%
Cc1ccc2c(c1)c1c(n2-c2ccccc2-c2ccc(C)nc2)CCN(C)C1 [Compound 59, 2,8-dimethyl-5-(2-(6-methylpyridin-3-yl)phenyl)-2,3,4,5-tetrahydro-1H-pyrido[4,3-b]indole]	77%	65%	47%	91%
Cc1ccc2c(c1)c1c(n2-c2cscc2-c2c(C)noc2C)CCN(C)C1 [Compound No. 62]	67%	18%	32%	19%

Results, then the molecule that gave them:

inhibition at 0.1 µM [1]	inhibition at 0.1 µM [2]	inhibition at 0.1 µM [3]	inhibition at 0.1 µM [4]	Structure (SMILES)
27%	12%	10%	7%	Cc1ccc2c(c1)c1c(n2-c2cccc(-c3cc4ccccc4s3)c2)CCN(C)C1 [Compound 51, 5-(3-(benzo[b]thiophen-2-yl)phenyl)-2,8-dimethyl-2,3,4,5-tetrahydro-1H-pyrido[4,3-b]indole]
4%	65%	36%	90%	CC(=O)Nc1ccc(-c2cscc2-n2c3c(c4cc(C)ccc42)CN(C)CC3)cn1 [Compound 56]
7%	-1%	6%	11%	Cc1cc(C)c2c(c1)c1c(n2-c2cccc(-c3ccncc3)c2)CCN(C)C1 [Compound 57, 2,6,8-trimethyl-5-(3-(pyridin-4-yl)phenyl)-2,3,4,5-tetrahydro-1H-pyrido[4,3-b]indole]
22%	24%	22%	39%	Cc1ccc2c(c1)c1c(n2-c2cccc3ccncc23)CCN(C)C1 [Compound 58, 5-(isoquinolin-8-yl)-2,8-dimethyl-2,3,4,5-tetrahydro-1H-pyrido[4,3-b]indole]
62%	9%	4%	14%	Cc1ccc2c(c1)c1c(n2-c2cccc(-c3ccc(C)nc3)c2)CCN(C)C1 [Compound 60, 2,8-dimethyl-5-(3-(6-methylpyridin-3-yl)phenyl)-2,3,4,5-tetrahydro-1H-pyrido[4,3-b]indole]
23%	5%	11%	7%	Cc1ccc2c(c1)c1c(n2-c2cccc(-c3ccc(F)cc3)c2)CCN(C)C1 [Compound No. 61, 5-(4′-fluorophenyl-3-yl)-2,8-dimethyl-2,3,4,5-tetrahydro-1H-pyrido[4,3-b]indole]
30%	5%	2%	11%	Cc1csc(-c2cccc(-n3c4c(c5cc(C)ccc53)CN(C)CC4)c2)c1 [Compound No. 63, 2,8-dimethyl-5-(3-(4-methylthiophen-2-yl)phenyl)-2,3,4,5-tetrahydro-1H-pyrido[4,3-b]indole]
